Laboratory results published in patent US20260115177A1, “MEDICINAL PRODUCTS AND METHODS FOR THE ALLEVIATION OF CANCER IMMUNOTHERA-PY-ASSOCIATED CYTOKINE RELEASE SYNDROME” (POOLBEG PHARMA (UK) LIMITED, priority 2023, published 2026).

Tested on: PBMC humanized NSG-MHC I/II double knock-out mice with Raji-Luc CD19-expressing cancer cells
Experiment: In vivo (murine) model using anti-CD28 antibody for CRS induction
Design: species or system mouse
Source text: An outline of the timeline of the model is provided in FIG. 19; it commences on Study Day 0 and ends on Study Day 10. […] It thus models the effect of administering a p38 MAP kinase inhibitor prior to the onset of CRS in accordance with the present disclosure.
Anti-CD28 antibody acts as a super-agonist of T cells (i.e., strongly activates T cells) resulting in T cell-mediated tumour cell death, with a rapid consequent release of cytokines and knock-on effects for monocytes and endothelial cells; thus modelling CRS induced by various different types of T cell-involving cancer immunotherapy.
Thus, on Study Day 0, 30 female 6- to 8-week-old NSG-(KbDb)null (IA)null mice are irradiated at 100 cGy. Approximately 4 hours later, on the same day (Study Day 0) all mice are humanised by IV dosing with 15×10^6 human peripheral blood mononuclear cells (PBMCs).
On Study Day 5, all mice are intravenously dosed with 0.25×10^6 Raji-Luc CD19-expressing cancer cells (a Raji wild-type cell line with stable and high expression of luciferase, enabling detection of cancer burden by […]). Approximately 4 hours later, mice are imaged using in vivo […] imaging (IVIS). For IVIS, mice are IP injected with 150 mg/kg D-Luciferin. 10 minutes after the D-Luciferin injection, mice are imaged dorsal and ventral; auto exposure) using an IVIS Lumina system (obtainable from PerkinElmer of Chalfont Road. Seer Green, Beaconsfield, HP9 2FX, UK). Regions of interest (ROI) are drawn for each mouse to capture its whole body, and total flux (p/s) is reported. Tumour burden continues to be monitored by IVIS twice per week, starting on Study Day 5, until the end of the study. Daily clinical observation continues throughout the study, including observation of CRS, CRS being scored as follows:
On Study Day 6, 25 of the 30 mice are treated with 1 mg/kg anti-CD28.
As a control, a group consisting of the 5 remaining mice (“Group 1”) are not administered anti-CD28. Beginning on Study Day 4 and ending on Study Day 10, Group 1 receive treatment with 0.5% (w:v) HPMC, 0.1% (w:v) Tween 80 in sWFI (vehicle/control), administered BID at 5 mL/kg.
The 25 mice administered anti-CD28 are divided into groups of 5 mice per group. Administration of a control drug (Humira), vehicle or UR-13870 is carried out in accordance with the following protocol: • Group 2—Vehicle only, BID, beginning on Study Day 4 and ending on Study Day 10; • Group 3—UR-13870 (formulated in vehicle), 2 mg/kg, twice daily (BID) beginning on Study Day 4 and ending on Study Day 10; • Group 4—UR-13870 (formulated in vehicle), 10 mg/kg, twice daily (BID) beginning on Study Day 4 and ending on Study Day 10; • Group 5—UR-13870 (formulated in vehicle), 25 mg/kg, twice daily (BID) beginning on Study Day 4 and ending on Study Day 10; and • Group 6—Humira (formulated in PBS) (further, positive control) 5 mg/kg, once daily beginning on Study Day 4 and ending on Study Day 10.
Dosing of UR-13870 or vehicle is by subcutaneous injection. Subcutaneous injection sites are rotated for each dose (rotating among right flank, left flank, right inguinal region, left inguinal region). For UR-13870 and vehicle, AM and PM (BID) doses are scheduled at least 6 hours apart. Dosing of Humira is by intraperitoneal injection.
On Study Days 6, 9 and 10, blood is collected from each of the 30 mice in Groups 1-6 (a 50-200 μl blood sample from each mouse, each time), for flow cytometry analysis, including analysis of CD19+ cancer cells per ml; and cytokine measurement. It should be noted that, where relevant to BID dosed groups, blood collection is carried out between AM and PM dosing.
All mice in Groups 1-6 are euthanized by CO2 asphyxiation on Study Day 10. […]

`OCCCn1cc2c(-c3ccc(F)cc3)c(-c3ccncc3)c(-c3ccc(F)cc3)nc2n1` [UR-13870, 6-bis(4-fluorophenyl)-5-(4-pyridinyl)-2Hpyrazolo[3,4-b]pyridine-2-propanol] was tested, and the “tumour cell proliferation (tumour burden by IVIS)” value (Day 5 to Day 7) was “does not increase”, the “T cell mediated cancer cell death” value (Day 5 to Day 7, tumour burden by IVIS) was “maintains” and the CRS scores (anti-CD28 1 mg/kg, UR-13870 2, 10, 25 mg/kg BID s.c., Humira 5 mg/kg once daily i.p., Study Day 4 to 10) was “significantly reduces”. For the same molecule, the IFNγ (blood serum, Luminex) was “reduced”, the IL-2 (blood serum, Luminex) was “reduced” and the IL-4 (blood serum, Luminex) was “reduced”. The IL-6 (blood serum, Luminex) was “reduced”, the IL-8 (blood serum, Luminex) was “reduced” and the IL-10 (blood serum, Luminex) was “reduced”. The MIP-1α (blood serum, Luminex) was “reduced”, the TNF a (blood serum, Luminex) was “reduced” and the “hCD45+ CD3+ hCD4+ cells/μl” value (blood, day 9) was “Neither UR-13870 or Humira had a significant impact”. For the same molecule, the “hCD45+ cells/μl” value (blood, days 9 and 10) was “Neither UR-13870 or Humira had a significant impact”, the “hCD45+ hCD3+ cells/μl” value (blood, days 9 and 10) was “Neither UR-13870 or Humira had a significant impact” and the “proliferation of tumour cells (counts of CD19+ cancer cells per ml)” value (blood, flow cytometry) was “neither UR-13870 or Humira increased proliferation of tumour cells”. For the same molecule, the “mean CD19+ cancer cells per ml compared to CD28 stimulation only” value (days 9 and 10 (especially day 10)) was “downward trend”.
